Results as given in patent US7968591B2, “1,3-disubstituted 4-methyl-1H-pyrrole-2-carboxamides and their use in medicaments” (Gruenenthal GmbH, priority 2006, dated 2011).

The molecules below were run on batrachotoxin (BTX) binding site of the sodium channel (assay: Affinity for the batrachotoxin (BTX) binding site of the sodium channel). Conditions: rat cerebrocortex synaptosomes, [3H]-Batrachotoxinin A20α benzoate 10 nM.

| SMILES | BTX (Na+ channel) (% inhibition at 10 μM) |
| --- | --- |
| Cc1ccc(-c2c(C)cn(Cc3ccccc3)c2C(=O)NCCN2CCCC2)cc1 [Example 74, 1-benzyl-4-methyl-3-p-tolyl-1H-pyrrole-2-carboxylic acid (2-pyrrolidin-1-ylethyl)-amide] | 101% |
| COc1ccc(CN2CCN(C(=O)c3c(-c4ccco4)c(C)cn3Cc3ccc(F)cc3)CC2)cc1F [Example 75, [1-(4-fluorobenzyl)-3-furan-2-yl-4-methyl-1H-pyrrol-2-yl]-[4-(3-fluoro-4-methoxybenzyl)-piperazin-1-yl]-methanone] | 89% |
| COc1ccc(-c2c(C)cn(C)c2C(=O)NCc2ccc(OC)cc2OC)cc1 [Example 76, 3-(4-methoxyphenyl)-1,4-dimethyl-1H-pyrrole-2-carboxylic acid 2,4-dimethoxybenzylamide] | 41% |
| Cc1cn(Cc2ccccc2)c(C(=O)NCCN2CCCC2)c1-c1ccccc1 [Example 77, 1-benzyl-4-methyl-3-phenyl-1H-pyrrole-2-carboxylic acid (2-pyrrolidin-1-ylethyl)-amide] | 91% |
| Cc1cn(C)c(C(=O)NCCCN2CCCCC2C)c1-c1ccc(Cl)cc1 (stereo not drawn) [Example 78, 3-(4-chlorophenyl)-1,4-dimethyl-1H-pyrrole-2-carboxylic acid [3-(2-methylpiperidin-1-yl)-propyl]-amide] | 86% |
| Cc1cn(Cc2ccccc2)c(C(=O)NC(C)c2ccc3ccccc3c2)c1-c1ccco1 (stereo not drawn) [Example 81, 1-benzyl-3-furan-2-yl-4-methyl-1H-pyrrole-2-carboxylic acid (1-naphthalen-2-ylethyl)-amide] | 35% |
